These results are taken from patent US4939142A, “Substituted styrene derivatives” (priority 1989, dated 1990).

As usually defined, the LD50 is the dose at which mortality reaches 50%. Low readings indicate a more toxic substance, high ones a less toxic substance. One may read the ED50 as the dose at which the effect has come halfway, by size or by number of responders.

A short description of series [1]: in vivo. Conditions: mouse, in vivo, po. The method, then: (§1) Male and female white mice (CFLP strain, 18-22 g) are used, 10 animals per dose. The test compounds are administered orally in a volume of 20 ml/kg. After administration the mice are observed for a period of 7 days. The animals are kept in plastic boxes, on wood litter, at room temperature. The animals receive standard mouse fodder and tap water ad libitum.

Series [2] relates to motility. The series is described as follows: animal or person. It is filed as in vivo. Conditions: for ED50: Mus musculus, po; for Therapeutical index: Table II, motility inhibition, LD50/ED50. The method, then:
The test is accomplished according to the method of Borsy et al. in a 10-channel Dews system equipment, whereby 3 mice are used per channel. The test compound or the carrier, respectively, is administered orally, and one hour after the said treatment the animals are placed into the apparatus and the number of the interruptions of infrared radiation is registered for 30 minutes.
The results are summarized in Table II and documented by means of suitable statistics for each experiment.
[J. Borsy, E. Csanyi, I. Lazar: Arch. Int. Pharmacodyn. 124, 1 (1960)].

Series [3] concerns hexobarbital narcosis. The series is described as follows: Hexobarbital narcosis potentiating effect. Conditions: for ED50: Mus musculus, po; for Therapeutical index LD50 /ED50: Table I, hexobarbital narcosis.
Description: The test is carried out on white mice. Groups consisting of six mice are used for each dose and test compound. The test compound is administered orally and an hour after this treatment narcosis is induced by means of a 40 mg/kg i.v. dose of hexobarbital. The control group receives carrier instead of the test compound.
Those mice are considered to be having a positive reaction which show a narcosis time at least 2.5 times longer than that of the control group. The ED50 values thus transformed are calculated.
In series [4] the test system is maximal electroshock. The series is described as follows: Inhibition of maximal electroshock on mice. Conditions: for ED50: Mus musculus, po; for Therapeutical index: Table VI, maximal electroshock, LD50/ED50.
Description: The test is carried out on white mice weighing 20-25 g. The animals receive an electric shock through corneal electrodes (50 Hz; 45 mA, 0.4 sec.). A total inhibition of the tonus extensor spasms of the posterior extremities is regarded as the criterium of anticonvulsive effect. The test compound and the carrier, respectively, are administered orally an hour before the electric shock.
Series [5] concerns tetrabenazine ptosis. The series is described as follows: Tetrabenazin ptosis antagonism (Hoffmeister et al.). The series is classed as in vivo. Conditions: Table III; for ED50: Mus musculus, oral, 30 min before tetrabenazin 50 mg/kg i.p. On the procedure: The test is carried out by the method of Hoffmeister et al. adapted to mice. Groups consisting of 10-20 animals are treated orally with each dose of the test compound. The control group is treated orally with the carrier. Thirty minutes later a 50 mg/kg i.p. tetrabenazine dose is administered, whereupon after 30, 60, 90 and 120 minutes the animals with closed eye-lids are counted in each group.
On the basis of all measurements an average ptosis is calculated for each group and expressed as the percentile deviation (inhibition) from the control group. On the basis of the data thus obtained ED50 values are calculated.
[Hoffmeister, F., Wuttke, W., and Kroneberg, G.: Arzneim. Forsch. (Drug.

Series [6] has as its system nicotine spasm and lethality. The series is described as follows: Inhibition of nicotine spasm and lethality on mice (Stone). It is filed as in vivo. Conditions: Table VIII; for ED50: Mus musculus, oral, 1 h before nicotine 1.4 mg/kg i.v.; for Therapeutical index: nicotine spasm and lethality, LD50/ED50. The text has this: [Stone, C. C., Mecklenburg, K. L., Torchiana, M. L.: Arch. Int.

Series [7] relates to pentetrazole spasm. The series is described as follows: Inhibition of pentetrazol spasm on mice. Conditions: for ED50: Mus musculus, po; for Therapeutical index: Table V, pentetrazole spasm, LD50/ED50.
Description: The modified method of Benziger and Hane is used on white mice. Groups consisting of 6 animals are used for each dose. […] The test compounds are administered orally one hour before the treatment with pentetrazole; in the control group the animals obtain the carrier orally at the same points of time.
The therapeutical index data disclosed in the above Tables are calculated by means of the following equation: [formula]
Series [8] concerns yohimbin toxicity. The series is described as follows: animal or person. Conditions: for ED50: Mus musculus; for Therapeutical index: Table IV, yohimbin toxicity, LD50/ED50. The method, then:
The test is carried out according to the method of Quinton. Groups consisting of 10 mice are used for each dose. The animal groups are treated with the suitable doses of the test compounds while the control group is treated with a carrier. An hour after the treatment a sublethal dose of yohimbin is administered intraperitoneally in a volume of 20 ml/kg. The perished animals are counted after 1 and 24 hours.

Series [9] concerns acetic acid writhing. The series is described as follows: Acetic acid "writhing test" on mice (Newbould). The series is classed as in vivo, white mice. Conditions: Table VII; for ED50: Mus musculus, oral, 1 h before acetic acid i.p., read-out: ED50; for Therapeutical index: acetic acid writhing, LD50/ED50. The method, then: In the period between the 5th and 10th minutes following the administration of acetic acid the number of the characteristic "writhing" responses is counted for each animal and the "total writhing number" (within 5 minutes) is expressed as the percentage of the value obtained for the control animals. The mice are treated with the test compound and the carrier, respectively, orally 1 hour before the administration of acetic acid. 12 animals are used per dose.
[Newbould, B. D.: Brit.

For series [10], the system named is mice. The series is described as follows: in vivo. Conditions: 10080 min. On the procedure:
as §1

Series [11] relates to ulcus secretion. The series is described as follows: animal or person. Conditions: for ED50: Rattus norvegicus, po, 5 h; for Therapeutical index: Table X, ulcus secretion, LD50/ED50. It is filed as in vivo. The method, then:
The test is carried out according to the method of Nakamura on rats (Wistar strain) weighing 150-230 g and fasted for 48 hours. Each animal group consists of 4 male and 4 female rats. On the day of the experiment the pylorus of the animals is bound and the corresponding dose of the test compound is administered orally immidiately after operation. The animals are killed with ether 5 hours after the operation, their stomach is removed, cut along the large curve and placed on plastic plates.

For the compound `CC(CO/N=C1C=C(/C=C/c2ccccc2)CC(C)(C)C/1)CN(C)C` (racemic) [Example 13, D,L-5,5-Dimethyl-3-(E)-phenyl-vinyl-1-(E)-(3'-dimethylamino-2'-methyl-propoxyimino)-2-cyclohexene], in series [1], the LD50 at 168 h is 1800 mg/kg. In series [2], it took a dose of 100 mg/kg to reach the 50% effect level (ED50) and the Therapeutical index is on record as 18.0. Besides, in [3], the ED50 worked out at 9 mg/kg and the “Therapeutical index LD50 /ED50” value is on record as 200.0. In series [4], this compound displayed an ED50 of 64 mg/kg and a Therapeutical index of 28.1.

In series [1], `CC(CO/N=C1C=C(/C=C/c2ccc(Cl)cc2)CC(C)(C)C/1)CN(C)C` (racemic) [Example 18, D,L-5,5-Dimethyl-3-(E)-[(4'-chloro-phenyl)-vinyl]-1-(E)-(3"-dimethylamino-2"-methyl-propoxyimino)-2-cyclohexene] showed an LD50 at 168 h of 2000 mg/kg. Moreover, the ED50 in series [5] was found to be 40 mg/kg; in series [6] it was 88 mg/kg; in series [7], 190 mg/kg. Also, the Therapeutical index came out at 50.0 in [5] (tetrabenazin ptosis, LD50/ED50); 22.7 in [6]; 10.5 in series [7].

In series [5], `CN(C)CCC=C1c2ccccc2CCc2ccccc21` [Amitriptylin, reference compound] displayed a median effective dose (ED50) of 12 mg/kg. In series [8], the ED50 is 12.5 mg/kg and the Therapeutical index came out at 18.

Compound `CN(C)CCCO/N=C1C=C(/C=C/c2ccccc2)CC(C)(C)C/1` [Example 1, 5,5-Dimethyl-3-(E)-phenyl-vinyl-1-(E)-(3'-dimethylamino-propoxyimino)-2-cyclohexene] had an LD50 at 168 h in series [1] of 1300 mg/kg. Moreover, the ED50 in [2] turned out to be 60 mg/kg; in series [9] it was 160 mg/kg; in [6] it was 12 mg/kg; in [7], 56 mg/kg; in [4], 110 mg/kg. The Therapeutical index is 22.0 in series [2]; 8.1 in series [9]; 108.0 in series [6]; 23.2 in [7]; 11.8 in series [4].

For `CN(C)CCO/N=C1C=C(/C=C/c2ccccc2)CC(C)(C)C/1` [Example 3, 5,5-Dimethyl-3-(E)-phenyl-vinyl-1-(E)-(2'-dimethylamino-ethoxyimino)-2-cyclohexene], in [1], the LD50 at 168 h turned out to be 1000 mg/kg. The ED50 in series [2] was 58 mg/kg; in series [6], 33 mg/kg; in series [7], 68 mg/kg; in series [4], 88 mg/kg. In addition, the Therapeutical index in [2] is on record as 17.0; in [6], 30.3; in [7], 14.7; in series [4], 11.4.

In turn, `CN(C)CCCO/N=C1C=C(/C=C/c2c(Cl)cccc2Cl)CC(C)(C)C/1` [Example 7, 5,5-Dimethyl-3-[(2',6'-dichloro-phenyl)-vinyl]-1-(E)-(3"-dimethylamino-propoxyimino)-2-cyclohexene] came in with an LD50 at 168 h in series [1] of 2000 mg/kg. For the same compound, the ED50 in series [8] came to 60 mg/kg; in series [7] it was 80 mg/kg. The Therapeutical index in series [8] is on record as 33.3; in series [6], 25; in [7], 25.0.

Take `CN(C)CCCO/N=C1C=C(/C=C/c2cccc(Cl)c2)CC(C)(C)C/1` [Example 8, 5,5-Dimethyl-3-(E)-[(3'-chloro-phenyl)-vinyl]-1-(E)-(3"-dimethylamino-propoxyimino)-2-cyclohexene]: the LD50 at 168 h in series [1] was 2000 mg/kg. The median effective dose (ED50) in series [2] is 170 mg/kg; in series [8], 35 mg/kg; in [9] it was 178 mg/kg; in series [6], 35 mg/kg; in [7] it was 58 mg/kg; in series [3] it was 180 mg/kg. The Therapeutical index in series [2] is listed as 11.8; in series [8], 57.1; in series [9] it was 11.2; in series [7], 34.5. In addition, the “Therapeutical index LD50 /ED50” value in series [3] is given as 11.1.

The compound `COc1ccc(/C=C/C2=CC(=N/OCCCN(C)C)/CC(C)(C)C2)cc1OC` [Example 10, 5,5-Dimethyl-3-(E)-[(3',4'-dimethoxy-phenyl)-vinyl]-1-(E)-(3"-dimethylamino-propoxyimino)-2-cyclohexene] displayed a median lethal dose (LD50) at 168 h in series [1] of 1000 mg/kg. The ED50 in series [2] stood at 60 mg/kg; in series [8] it was 40 mg/kg; in series [9], 153 mg/kg. Moreover, the Therapeutical index is recorded as 16.7 in [2], 25 in [8] and 6.5 in series [9].

In series [1], `CC1(C)CC(/C=C/c2ccccc2Cl)=CC(=N/OCCN2CCCCC2)/C1` [Example 26, 5,5-Dimethyl-3-(E)-[(2'-chloro-phenyl)-vinyl]-1-(E)-(N-piperdinyl-ethoxyimino)-2-cyclohexene] came in with an LD50 at 168 h greater than 1000 mg/kg. Further, the LD50 in series [10] (Table II, oral, mice) is recorded as greater than 1000 mg/kg. Moreover, the ED50 in series [2] is roughly 200 mg/kg; in [11] it was roughly 50 mg/kg. The Therapeutical index in [2] is greater than 5.0; in series [11], “above 20”.

`COc1cccc(/C=C/C2=CC(=N/OCCN3CCOCC3)/CC(C)(C)C2)c1` [Example 29, 5,5-Dimethyl-3-(E)-[(3'-methoxy-phenyl)-vinyl]-1-(E)-(N-morpholino-ethoxyimino)-2-cyclohexene] came in with an LD50 at 168 h in series [1] greater than 2000 mg/kg. In addition, the median lethal dose (LD50) in [10] (Table I, oral, mice) is reported as greater than 2000 mg/kg; in series [10] (Table II, oral, mice) it was greater than 2000 mg/kg; in [10] (Table X), “above 2000 mg/kg”. Further, the ED50 in series [2] was roughly 200 mg/kg; in series [9], roughly 160 mg/kg; in series [11] it was roughly 200 mg/kg; in [3], 21.5 mg/kg. In addition, the Therapeutical index is on record as greater than 10.0 in [2], greater than 12.5 in series [9] and “above 10.0” in [11]. Further, in series [3], the “Therapeutical index LD50 /ED50” value was greater than 93.0.

Regarding `CC1(C)CC(/C=C/c2cccc(Cl)c2)=CC(=N/OCCCN2CCOCC2)/C1` [Example 34, 5,5-Dimethyl-3-(E)-[(3'-chloro-phenyl)-vinyl]-1-(E)-(N-morpholino-propoxyimino)-2-cyclohexene], the LD50 at 168 h in [1] is greater than 2000 mg/kg. Besides, the LD50 in series [10] (Table VII, oral, mice) is recorded as greater than 2000 mg/kg; in [10] (Table X) it was “above 2000 mg/kg”. The figures for the ED50 in series [9], in series [11] and in series [7] were roughly 200 mg/kg, roughly 100 mg/kg and 180 mg/kg, respectively. Moreover, the Therapeutical index in series [9] is recorded as greater than 10.0; in series [11] it was “above 20.0”; in series [7], greater than 11.0.

On to `CN1C(=O)OC(C)(C)C1=O` [Trimethadion, reference compound], for which the ED50 in [7] was found to be 490 mg/kg. In [4], this compound had an ED50 of 400 mg/kg and a Therapeutical index of 5.1.

As for `COc1cc(C(=S)N2CCOCC2)cc(OC)c1OC` [Trithiozine, reference compound], the ED50 in series [11] was roughly 240 mg/kg.
